Laboratory results: the supplement of paper PMC13380429

What was measured:
Settings in all cases: 72 h
U2OS [1] = assay: drug sensitivity score (DSS) for viability; higher = more toxic; extreme values may be limits of the assay
Calu-3 [2] = assay: as above
HepG2 [3] = assay: as above
Caco-2 [4] = assay: as above
U2OS [5] = assay: relative viability EC50 (midpoint between 100% and the lowest measured viability); higher = less toxic
Calu-3 [6] = assay: as above
HepG2 [7] = assay: as above
Caco-2 [8] = assay: as above
U2OS [9] = assay: cell viability relative to DMSO; higher = less toxic
Calu-3 [10] = assay: as above
HepG2 [11] = assay: as above
Caco-2 [12] = assay: as above
Vero E6 [13] = assay: drug sensitivity score (DSS) for viability; higher = more toxic; extreme values may be limits of the assay
Vero E6 [14] = assay: relative viability EC50 (midpoint between 100% and the lowest measured viability); higher = less toxic
Vero E6 [15] = assay: cell viability relative to DMSO; higher = less toxic

| SMILES | drug sensitivity score (U2OS [1]) | drug sensitivity score (Calu-3 [2]) | drug sensitivity score (HepG2 [3]) | drug sensitivity score (Caco-2 [4]) | relative viability EC50 (U2OS [5]) [µM] | relative viability EC50 (Calu-3 [6]) [µM] | relative viability EC50 (HepG2 [7]) [µM] | relative viability EC50 (Caco-2 [8]) [µM] | cell viability (U2OS [9]; 1 nM) [%] | cell viability (U2OS [9]; 10 nM) [%] | cell viability (U2OS [9]; 100 nM) [%] | cell viability (U2OS [9]; 1000 nM) [%] | cell viability (U2OS [9]; 10000 nM) [%] | cell viability (Calu-3 [10]; 1 nM) [%] | cell viability (Calu-3 [10]; 10 nM) [%] | cell viability (Calu-3 [10]; 100 nM) [%] | cell viability (Calu-3 [10]; 1000 nM) [%] | cell viability (Calu-3 [10]; 10000 nM) [%] | cell viability (HepG2 [11]; 1 nM) [%] | cell viability (HepG2 [11]; 10 nM) [%] | cell viability (HepG2 [11]; 100 nM) [%] | cell viability (HepG2 [11]; 1000 nM) [%] | cell viability (HepG2 [11]; 10000 nM) [%] | cell viability (Caco-2 [12]; 1 nM) [%] | cell viability (Caco-2 [12]; 10 nM) [%] | cell viability (Caco-2 [12]; 100 nM) [%] | cell viability (Caco-2 [12]; 1000 nM) [%] | cell viability (Caco-2 [12]; 10000 nM) [%] | drug sensitivity score (Vero E6 [13]) | relative viability EC50 (Vero E6 [14]) [µM] | cell viability (Vero E6 [15]; 1 nM) [%] | cell viability (Vero E6 [15]; 10 nM) [%] | cell viability (Vero E6 [15]; 100 nM) [%] | cell viability (Vero E6 [15]; 1000 nM) [%] | cell viability (Vero E6 [15]; 10000 nM) [%] |
| --- | --- | --- | --- | --- | --- | --- | --- | --- | --- | --- | --- | --- | --- | --- | --- | --- | --- | --- | --- | --- | --- | --- | --- | --- | --- | --- | --- | --- | --- | --- | --- | --- | --- | --- | --- |
| CN1[C@H]2C[C@H](OC(=O)[C@H](CO)c3ccccc3)C[C@@H]1[C@@H](O)C2 [anisodamine] | 0 | 0 | 0 | 0 | > 10 | > 10 | > 10 | > 10 | 98 | 105 | 98.8 | 101 | 97.6 | 101 | 103 | 105 | 91.8 | 108 | 104 | 111 | 79.8 | 104 | 102 | 107 | 108 | 101 | 115 | 99.2 |  |  |  |  |  |  |  |
| CCC1(c2c[nH]cn2)Cc2ccccc2C1 [atipamezole] |  | 0 | 0 | 0 |  | > 10 | > 10 | > 10 |  |  |  |  |  | 96.9 | 101 | 94.9 | 106 | 93.5 | 102 | 95.5 | 111 | 100 | 109 | 104 | 115 | 104 | 100 | 108 |  |  |  |  |  |  |  |
| CCC1=C[C@@H]2CN3CCc4c([nH]c5ccccc45)[C@@](C(=O)OC)(C2)[C@@H]13 [catharanthine] | 0 | 0 |  | 0 | > 10 | > 10 |  | > 10 | 92.3 | 100 | 95.7 | 97.1 | 98.4 | 98.5 | 107 | 98.4 | 90.9 | 101 |  |  |  |  |  | 93.7 | 92.6 | 95.9 | 103 | 91.9 | 0 | > 10 | 103 | 93.4 | 98.4 | 101 | 110 |
| CCC1(c2ccccc2)C(=O)N(COC)C(=O)N(COC)C1=O [eterobarb] |  | 0 | 0 | 0 |  | > 10 | > 10 | > 10 |  |  |  |  |  | 111 | 88.2 | 110 | 88.5 | 105 | 105 | 114 | 97.4 | 100 | 88.4 | 102 | 90.8 | 95.3 | 105 | 111 | 0 | > 10 | 112 | 110 | 102 | 106 | 86.8 |
| C[C@]12CC[C@H](O)CC1=CC[C@@H]1[C@@H]2CC[C@]2(C)C(n3cnc4ccccc43)=CC[C@@H]12 [galeterone] | 0 | 0 | 0.9 | 4.6 | > 10 | > 10 | > 10 | 1.72 | 96.4 | 102 | 93.4 | 95.1 | 92.9 | 91.9 | 95 | 85.5 | 99.6 | 90.2 | 97.8 | 102 | 97.5 | 99.3 | 77.4 | 95.6 | 102 | 89.1 | 88.3 | 45.9 | 1.1 |  | 100 | 99 | 102 | 99.2 | 74.5 |
| CC(C)(CO)CCCCCCC(C)(C)CO [gemcadiol] | 0 | 0 |  | 0 | > 10 | > 10 |  | > 10 | 97 | 94.5 | 103 | 96.8 | 98.7 | 97.4 | 93.5 | 100 | 94.3 | 105 |  |  |  |  |  | 89.7 | 129 | 113 | 128 | 92.2 | 0 | > 10 | 93.8 | 102 | 102 | 103 | 108 |
| N[C@@H](CCC(=O)N[C@@H](CS)C(=O)NCC(=O)O)C(=O)O [glutathione] | 0 | 0 | 0 | 0 | > 10 | > 10 | > 10 | > 10 | 95.3 | 97.3 | 99.5 | 96.6 | 102 | 98.1 | 93.2 | 98.8 | 101 | 99.7 | 108 | 106 | 97.3 | 99.3 | 104 | 92.7 | 90.7 | 105 | 93.6 | 99.4 |  |  |  |  |  |  |  |
| N=C(N)SCCc1c[nH]cn1 [imetit] |  | 0.1 | 0 | 0 |  | > 10 | > 10 | > 10 |  |  |  |  |  | 97.8 | 109 | 97 | 93.7 | 87.8 | 112 | 111 | 95.9 | 95.2 | 112 | 97.2 | 99.1 | 97 | 100 | 93.5 | 0 | > 10 | 103 | 103 | 103 | 97.1 | 101 |
| O/N=C/c1cc[n+](COC[n+]2ccc(/C=N/O)cc2)cc1 [obidoxime] | 0 | 0 |  | 0 | > 10 | > 10 |  | > 10 | 97.2 | 101 | 94.9 | 95.2 | 102 | 102 | 91.8 | 100 | 84.1 | 106 |  |  |  |  |  | 94.5 | 99.4 | 94.4 | 94.7 | 94.6 |  |  |  |  |  |  |  |
| Cc1cn2nc([C@@H]3CCCCN3C(=O)c3cc(Cl)ccc3NS(C)(=O)=O)cc2nc1N1CC[C@H](N)C1 [presatovir] | 1.1 | 0 | 0 | 3 | > 10 | > 10 | > 10 |  | 101 | 97 | 100 | 98.3 | 76.6 | 102 | 107 | 102 | 94 | 98.5 | 98.8 | 110 | 104 | 106 | 105 | 93.8 | 95.2 | 102 | 96.2 | 53.9 | 0 | > 10 | 98.8 | 103 | 94.4 | 96.8 | 102 |
| CC(C)(C)Sc1c(CC(C)(C)C(=O)O)n(Cc2ccc(Cl)cc2)c2ccc(OCc3ccc4ccccc4n3)cc12 [quiflapon] | 0 | 0 | 0 | 0 | > 10 | > 10 | > 10 | > 10 | 102 | 108 | 104 | 99.6 | 109 | 91.5 | 97.3 | 98.7 | 102 | 110 | 105 | 95.6 | 96.8 | 98.3 | 104 | 104 | 102 | 97 | 96 | 102 |  |  |  |  |  |  |  |
| O=C(/C=C/c1ccccc1)NC(NC(=S)Nc1cccc2cccnc12)C(Cl)(Cl)Cl (stereo unspecified) [salubrinal] | 0 | 0 | 0 | 0.4 | > 10 | > 10 | > 10 | > 10 | 98.3 | 107 | 101 | 102 | 91.1 | 99.4 | 100 | 97.6 | 109 | 87.1 | 107 | 111 | 99.1 | 101 | 108 | 126 | 102 | 96.7 | 103 | 80.1 |  |  |  |  |  |  |  |
| O=C1c2ccc(Nc3ccc(F)cc3F)cc2CCc2ccc(OC[C@H](O)CO)cc21 [skepinone-L] | 0.1 | 0 | 0.8 | 2.5 | > 10 | > 10 | > 10 |  | 96.5 | 91.8 | 91.4 | 90.2 | 89.5 | 97.2 | 94 | 96.2 | 101 | 94.7 | 102 | 109 | 98.8 | 101 | 75.2 | 103 | 84.1 | 89.2 | 91.7 | 73.4 | 1.9 | > 10 | 103 | 103 | 86.8 | 89.4 | 80.3 |
| Cc1nnc(NS(=O)(=O)c2ccc(N)cc2)s1 [sulfamethizole] | 0 | 0 | 0 | 0 | > 10 | > 10 | > 10 | > 10 | 103 | 98.1 | 103 | 99.2 | 99.2 | 96.3 | 98.4 | 96.7 | 99.2 | 105 | 102 | 111 | 98 | 108 | 90.4 | 88.1 | 85.7 | 98.9 | 93.6 | 99 |  |  |  |  |  |  |  |
| COc1cc([S+](C)[O-])ccc1-c1nc2cccnc2[nH]1 (stereo unspecified) [sulmazole] |  | 0 | 0 | 0 |  | > 10 | > 10 | > 10 |  |  |  |  |  | 108 | 90.3 | 90.7 | 93.8 | 104 | 106 | 103 | 95.5 | 102 | 100 | 115 | 98.5 | 98.8 | 99.5 | 112 | 0 | > 10 | 98 | 102 | 98.5 | 97.8 | 101 |
| C=C[C@]1(C)C[C@@H](OC(=O)CSC(C)(C)CNC(=O)[C@H](N)C(C)C)[C@]2(C)[C@H](C)CC[C@]3(CCC(=O)[C@H]32)[C@@H](C)[C@@H]1O [valnemulin] | 1.1 | 0 | 3 | 0.7 | > 10 | > 10 |  | > 10 | 97.4 | 99.4 | 97.7 | 96.3 | 79.5 | 94.3 | 98.6 | 102 | 101 | 98.9 | 98.6 | 104 | 93.7 | 88.1 | 63 | 99.4 | 93.3 | 91.8 | 94.5 | 80.9 | 0.2 | > 10 | 97.1 | 98.7 | 103 | 95.1 | 88.3 |
| Cc1cn([C@H]2C[C@H](N=[N+]=[N-])[C@@H](CO)O2)c(=O)[nH]c1=O [zidovudine] | 0 | 0 | 0 | 0 | > 10 | > 10 | > 10 | > 10 | 103 | 104 | 95.2 | 103 | 94.3 | 107 | 89.6 | 101 | 98.9 | 103 | 101 | 109 | 99 | 94.6 | 104 | 94.9 | 92.6 | 105 | 98 | 98 |  |  |  |  |  |  |  |
